In ChEMBL document CHEMBL1255532, “Cytotoxic cycloartane triterpene and rare isomeric bisclerodane diterpenes from the leaves of Polyalthia longifolia var. pendula” (Bioorg Med Chem Lett, 2010):
Values after ≈ are worked out from the molar mass of the structure shown.

Tests used:
MCF7 = assay: Cytotoxicity against human MCF7 cells after 48 hrs by SRB assay; type: functional, cell-based; conditions: MCF7, 48 h
KB = assay: Cytotoxicity against human KB cells after 48 hrs by SRB assay; type: functional, cell-based
A549 = assay: Cytotoxicity against human A549 cells after 48 hrs by SRB assay; type: functional, cell-based; conditions: A549, 48 h
C-33-A = assay: Cytotoxicity against human C33A cells after 48 hrs by SRB assay; type: functional, cell-based
[1] = Cytotoxicity against mouse NIH/3T3 cells after 48 hrs by SRB assay; type: cell-based; conditions: NIH3T3, 48 h

SMILES | IC50 (MCF7) | IC50 (KB) | IC50 (A549) | IC50 (C-33-A) | IC50 [1]
COc1cccc2c1C(=O)c1c(O)c3c(c(O)c1C2=O)C[C@@](O)(C(=O)CO)C[C@@H]3O[C@H]1C[C@H](N)[C@H](O)[C@H](C)O1 [DOXORUBICIN] | 0.45 mg/L (≈ 0.828 µM) | 0.12 mg/L (≈ 0.221 µM) | 0.33 mg/L (≈ 0.607 µM) | 0.28 mg/L (≈ 0.515 µM) | 
CC1=CCC[C@@H]2[C@@](C)(CCC3=CC(=O)N(/C=C(\CC[C@@]4(C)[C@H](C)CC[C@@]5(C)C(C)=CCC[C@H]45)CC(=O)O)C3=O)[C@H](C)CC[C@@]12C [LONGIMIDE A] | 9.23 mg/L (≈ 14.9 µM) | 8.85 mg/L (≈ 14.3 µM) | 10.1 mg/L (≈ 16.4 µM) | 4.12 mg/L (≈ 6.67 µM) | 44.7 mg/L (≈ 72.3 µM)
C=C(C(C)C)[C@@H](O)C[C@@H](C)[C@H]1[C@@H](O)C[C@@]2(C)[C@@H]3CC[C@H]4C(C)(C)[C@@H](O)CC[C@@]45C[C@@]35CC[C@]12C [LONGITRIOL] | 30.9 mg/L (≈ 65.3 µM) | 24.1 mg/L (≈ 51 µM) | 13.2 mg/L (≈ 27.9 µM) | 10 mg/L (≈ 21.2 µM) | > 50 mg/L
